From PubChem BioAssay (NCI)
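Where inhibition never reached the appropriate level, the endpoint shown equals the highest concentration tested. Otherwise, values were interpolated linearly from a five-concentration, 48-hour dose response in 96-well plates. The concentration for 50% growth inhibition is given as GI50. Definition used: TGI = concentration required for complete inhibition of growth.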

Columns and labels:
Experiment in all cases: inhibition of tumour cell growth, NCI panel, 48 h
[1] = tested on: SR leukemia
[2] = tested on: ACHN renal
[3] = tested on: RXF 393 renal
[4] = tested on: A498 renal
[5] = tested on: SF-295 CNS
[6] = tested on: HCC-2998 colon
[7] = tested on: SN12C renal
[8] = tested on: EKVX NSCLC
[9] = tested on: NCI/ADR-RES ovarian
[10] = tested on: SNB-19 CNS
[11] = tested on: HOP-62 NSCLC
[12] = tested on: SNB-75 CNS
[13] = tested on: MALME-3M melanoma
[14] = tested on: HCT-15 colon
[15] = tested on: BT-549 breast
[16] = tested on: SW-620 colon
[17] = tested on: RPMI-8226 leukemia
[18] = tested on: HCT-116 colon
[19] = tested on: K-562 leukemia
[20] = tested on: MOLT-4 leukemia
[21] = tested on: DU-145 prostate
[22] = tested on: SK-MEL-5 melanoma
[23] = tested on: KM12 colon
[24] = tested on: CCRF-CEM leukemia
[25] = tested on: UACC-257 melanoma
[26] = tested on: SF-268 CNS
[27] = tested on: OVCAR-8 ovarian
[28] = tested on: T-47D breast
[29] = tested on: 786-0 renal
[30] = tested on: U251 CNS
[31] = tested on: NCI-H522 lung
[32] = tested on: MDA-MB-435
[33] = tested on: MCF7 breast
[34] = tested on: OVCAR-5 ovarian
[35] = tested on: M14 melanoma
[36] = tested on: SF-539 CNS
[37] = tested on: NCI-H460 lung
[38] = tested on: LOX IMVI melanoma
[39] = tested on: HT29 colon
[40] = tested on: HOP-92 NSCLC
[41] = tested on: COLO 205 colon
[42] = tested on: PC-3 prostate
[43] = tested on: SK-MEL-28 melanoma
[44] = tested on: NCI-H23 lung
[45] = tested on: NCI-H226 lung
[46] = tested on: MDA-MB-231 breast
[47] = tested on: UACC-62 melanoma
[48] = tested on: TK-10 renal
[49] = tested on: UO-31 renal
[50] = tested on: HS 578T breast
[51] = tested on: SK-MEL-2 melanoma
[52] = tested on: SK-OV-3 ovarian
[53] = tested on: OVCAR-3 ovarian
[54] = tested on: A549 NSCLC
[55] = tested on: OVCAR-4 ovarian
[56] = tested on: CAKI-1 renal
[57] = tested on: HL-60(TB) leukemia
[58] = tested on: IGROV1 ovarian

## CN(C)/C=N/S(=O)(=O)c1nn2c(C=O)c(-c3ccc(Cl)cc3)nc2s1
[1]
  TGI: 3.4 µM
[2]
  TGI: 2.36 µM
[3]
  TGI: 3.37 µM
[4]
  TGI: 30.3 µM
[5]
  TGI: 28.2 µM
[6]
  TGI: 9.75 µM
[7]
  TGI: 5.94 µM
[8]
  TGI: 12.7 µM
[9]
  TGI: 10.6 µM
[10]
  TGI: 28.8 µM
[11]
  TGI: 27.5 µM
[12]
  TGI: 24.3 µM
[13]
  TGI: 3.2 µM
[14]
  TGI: 5.63 µM
[15]
  TGI: 2.83 µM
[16]
  TGI: 1.52 µM
[17]
  TGI: 4.22 µM
[18]
  TGI: 2.18 µM
[19]
  TGI: 3.04 µM
[20]
  TGI: 2.68 µM
[21]
  TGI: 6.02 µM
[22]
  TGI: 2.98 µM
[23]
  TGI: 17.6 µM
[24]
  TGI: 0.701 µM
[25]
  TGI: 9.83 µM
[26]
  TGI: 12.6 µM
[27]
  TGI: 3.2 µM
[28]
  TGI: 3.36 µM
[29]
  TGI: 2.5 µM
[30]
  TGI: 11.7 µM
[31]
  TGI: 2.12 µM
[32]
  TGI: 7.92 µM
[33]
  TGI: 2.68 µM
[34]
  TGI: 5.55 µM
[35]
  TGI: 2.17 µM
[36]
  TGI: 5.21 µM
[37]
  TGI: 22.4 µM
[38]
  TGI: 2.85 µM
[39]
  TGI: 0.552 µM
[40]
  TGI: 7.17 µM
[41]
  TGI: 2.81 µM
[42]
  TGI: 9.38 µM
[43]
  TGI: 3.33 µM
[44]
  TGI: 9.81 µM
[45]
  TGI: 9.86 µM
[46]
  TGI: 7.77 µM
[47]
  TGI: 14.3 µM
[48]
  TGI: 2.88 µM
[49]
  TGI: 2.18 µM
[50]
  TGI: > 22 µM
[51]
  TGI: 21.3 µM
[52]
  TGI: 29.5 µM
[53]
  TGI: 2.87 µM
[54]
  TGI: 20.2 µM
[55]
  TGI: 3.58 µM
[56]
  TGI: 2.58 µM

## CCCCCN(CCCCC)CC(O)c1ccc(Cl)c2ccccc12 (stereo not given)
[1]
  GI50: 4.11 µM
  TGI: 14.7 µM
[2]
  GI50: 10.3 µM
  TGI: 22.5 µM
[3]
  GI50: 2.13 µM
  TGI: 8 µM
[4]
  GI50: 10.3 µM
  TGI: 29.3 µM
[5]
  GI50: 3.99 µM
  TGI: 26.3 µM
[6]
  GI50: 3.34 µM
  TGI: 9.72 µM
[7]
  GI50: 10.6 µM
  TGI: 24.6 µM
[8]
  GI50: 10.8 µM
  TGI: 30.4 µM
[9]
  GI50: 11.1 µM
  TGI: 24.8 µM
[10]
  GI50: 12.7 µM
  TGI: 30.1 µM
[11]
  GI50: 13.1 µM
  TGI: 26.5 µM
[12]
  GI50: 11.7 µM
  TGI: 35.8 µM
[13]
  GI50: 15.4 µM
  TGI: 32 µM
[14]
  GI50: 6.98 µM
  TGI: 22.1 µM
[15]
  GI50: 16.3 µM
  TGI: 33.7 µM
[16]
  GI50: 2.77 µM
  TGI: 13.6 µM
[17]
  GI50: 6.43 µM
  TGI: 27.6 µM
[18]
  GI50: 2.13 µM
  TGI: 13.1 µM
[19]
  GI50: 4.23 µM
  TGI: 20.8 µM
[20]
  GI50: 6.69 µM
  TGI: 24 µM
[21]
  GI50: 12.1 µM
  TGI: 30.6 µM
[22]
  GI50: 8.39 µM
  TGI: 20.8 µM
[23]
  GI50: 6.11 µM
  TGI: 25 µM
[24]
  GI50: 10.5 µM
  TGI: 33.1 µM
[25]
  GI50: 18.8 µM
  TGI: 38.7 µM
[57]
  GI50: 5.5 µM
  TGI: 20.9 µM
[26]
  GI50: 13.5 µM
  TGI: 30.1 µM
[27]
  GI50: 16.6 µM
  TGI: 36.6 µM
[28]
  GI50: 4.93 µM
  TGI: 19.4 µM
[29]
  GI50: 11.7 µM
  TGI: 24.8 µM
[30]
  GI50: 12.3 µM
  TGI: 28.6 µM
[31]
  GI50: 14.4 µM
  TGI: 32.1 µM
[32]
  GI50: 6.43 µM
  TGI: 45 µM
[33]
  GI50: 6.89 µM
  TGI: 20.5 µM
[34]
  GI50: 9.41 µM
  TGI: 22 µM
[35]
  GI50: 4.51 µM
  TGI: 18.7 µM
[37]
  GI50: 3.72 µM
  TGI: 19.1 µM
[38]
  GI50: 3.94 µM
  TGI: 16.4 µM
[39]
  GI50: 2.24 µM
  TGI: 20.6 µM
[40]
  GI50: 0.974 µM
  TGI: 14 µM
[41]
  GI50: 3.6 µM
  TGI: 16.5 µM
[42]
  GI50: 12.3 µM
  TGI: 31.5 µM
[43]
  GI50: 11.2 µM
  TGI: 24.4 µM
[44]
  GI50: 4.5 µM
  TGI: 19.9 µM
[45]
  GI50: 10 µM
  TGI: 23.1 µM
[46]
  GI50: 10.8 µM
  TGI: 26.4 µM
[47]
  GI50: 6.25 µM
  TGI: 22.2 µM
[48]
  GI50: 15.5 µM
  TGI: 33.9 µM
[49]
  GI50: 5.16 µM
  TGI: 20.6 µM
[50]
  GI50: 10.8 µM
  TGI: 33.9 µM
[58]
  GI50: 4.92 µM
  TGI: 24.3 µM
[51]
  GI50: 17.4 µM
  TGI: 38.2 µM
[52]
  GI50: 13.8 µM
  TGI: 37.5 µM
[53]
  GI50: 12.4 µM
  TGI: 26.5 µM
[54]
  GI50: 14.2 µM
  TGI: 34 µM
[55]
  GI50: 12.2 µM
  TGI: 72.5 µM
[56]
  GI50: 3.35 µM
  TGI: 18.6 µM
